# Read-outs that look alike come from different tables or passages of the source.
# Columns and labels:
# [1] = Acute oral toxicity in Kun Ming mice, LD50 by Bliss method; conditions: both sexes, Kun Ming (KM), mouse, in vivo, po
# Description: Male and female Kun Ming (KM) mice weighing between 18 g-22 g were acquired from the animal facility of Hsiang-Ya Medical College, the Central South University. Fifty Kun Ming mice were randomly assigned into 5 groups with 5 male and 5 female mice for each group. The animals went through fasting with a normal water supply before starting drug treatment (either AKF-PD or PIRFENIDONE). The drug was administrated orally by gavage. The volume of liquid drug was 20 ml/kg body weight. The range of dosage for AKF-PD administrated was from 1071 mg/kg to 6000 mg/kg. The dosage difference between two adjacent doses was 1:0.65 (a dose vs the next lower dose). All animals were maintained under a regular condition. Acute toxic reaction and death within 14 days of post drug treatment were recorded. Autopsy was performed on all dead animals and visual examination was performed on all organs.
# LD50 was calculated according to Bliss method. […] The results of Table 15 are very close to those reported in the literature: 997.7 mg/kg (U.S. Pat. No. 5,310,562) and 1112 mg/kg(Pharmaceutical Care and Research 5:4823(2005)).
# [2] = system: Human Peritoneal Mesothelial Cells; test: MTT proliferation assay, human peritoneal mesothelial cells; assay type: cell-based
# Description: In the following examples, myocardiac fibroblasts, skin scar forming fibroblast and human peritoneal mesothelial cells are primary cultures prepared according to common procedure. Other cells are commercially purchased. 1-(3-fluorophenyl)-5-methyl-2(1H)-pyridone (AKF-PD) is prepared as a suspension in 5% carboxymethylcellulose.
# Cell proliferation was measured by MTT assay. DMEM with 10% fetal serum was used as cell culture medium. The cells were prepared in suspension (1×10^5/ml), and 100 μL of the suspension was transferred to each well of a 96 wells plate. Once the cells were attached to the plastic, the culture was changed to serum free medium and incubated for another 24 hours. Then, the serum free medium was aspirated, and various concentrations of 1-(3′-fluorophenyl)-5-methyl-2(1H)-pyridone (AKF-PD) or PIRFENIDONE (PFD) in 10% serum medium were added into each well with 5 replicates for each concentration. The cells were stained with MTT (10 μL per well) at 12, […], or 48 hours post drug treatment. After 4 hrs of incubation, the medium with MTT was aspirated from each well. One hundred μL MTT solvent was added to each well for 15 min, and the dissolved MTT was measured with a plate reader at 570 nm.
# [3] = system: SD rat, renal interstitial fibrosis induced by surgical ligation of single side ureter; test: Rat ureter ligation model of renal interstitial fibrosis, AKF-PD vs PFD (Example 12); assay type: in vivo; conditions: ureter-ligated rats; PFD 500 mg/kg/d, AKF-PD 500 mg/kg/d by gavage; 14 days post surgery
# Description: Anti-fibrotic effect of AKF-PD was tested on a SD rat model for renal interstitial fibrosis induced by surgical ligation of single side ureter. Male SD rats (180 g˜220 g) were randomly divided into disease model group, PFD (500 mg/kg/d) group and AKF-PD (500 mg/kg/d) group. […] The respective drugs were administrated by gavage to rats in the groups of PFD and AKF-PD from one day prior to the procedure to 14 days post surgical procedure. Normal saline was administrated in a similar fashion to the rats in the groups of disease model. The animals were sacrificed 14 days after surgical procedure and their kidney were removed for pathological (HE staining) examination.
# [4] = system: ICR mice injected with bleomycin; test: Bleomycin-induced mouse pulmonary fibrosis, histological score of lung tissue; assay type: in vivo; conditions: AKF-PD and PFD 500 mg/kg, captopril 12.5 mg/kg by gavage day 1 to 28, Szapiel's method
# Description: Under regular care condition, 7-10 weeks old, male, institute of cancer research (ICR) mice, weight 28-39 g, were randomly grouped as normal control, disease, disease/AKF-PD, disease/PFD and disease Captopril group.
# Control group was injected with normal saline once day from day 2 to 15 days. Disease, disease/AKF-PD, disease/PFD and disease/captopril groups were injected with bleomycin once day from day 2 to 15. Control and disease groups were given 0.5% CMC by gavage once a day from day 1 to day 28. 500 mg/kg of AKF-PD CMC suspension and PD CMC suspension and 12.5 mg/kg captopril in saline were administered to respective groups by gavage once day from day 1 to day 28. All animals were sacrificed on day 29 and their lungs were removed for pathological (HE staining) examination.
# Histological scoring for the lung tissue was done according Szapiel's method.
# [5] = system: SD rat, Unilateral Ureteral Obstruction (UUO) model; test: Rat UUO model of renal interstitial fibrosis, histological score (Example 8); assay type: in vivo; conditions: UUO rats; AKF-PD 500 mg/kg/d, Enalapril 10 mg/kg/d by gavage; 14 days post surgery; Radford's method
# Description: Anti-fibrotic effect of AKF-PD was tested on a SD rat model for renal interstitial fibrosis induced by surgical ligation of single side ureter (Unilateral Ureteral Obstruction, UUO, model). Eight weeks old male SD rats (180 g˜220 g) were randomly divided into sham surgical group, disease model group, Enalapril (10 mg/kg/d) group and AKF-PD (500 mg/kg/d) group. […] The animals of the sham surgical group experienced the same surgical procedure except the ligation step. The respective drugs were administrated by gavage to rats in the groups of Enalapril and AKF-PD from one day prior to the procedure to 14 days post surgical procedure. Normal saline was administrated in a similar fashion to the rats in the groups of disease model and sham surgical. The animals were sacrificed 14 days after surgical procedure and their left kidney were removed for pathological (HE staining) examination. Histological scoring for interstitial compartment was done according to Radford's method (Radford et al., Predicting renal outcome in IgA nephropathy. J. Am. Soc. Nephrol. 8: 199-207(1997)).
# Kun Ming (KM) mice = conditions: cited from earlier work
smiles,measurement,setting,value
"Cc1ccc(=O)n(-c2cccc(F)c2)c1 [AKF-PD, 1-(3′-fluorophenyl)-5-methyl-2(1H)-pyridone]",LD50 at 14 days,[1]; LD50,2980 mg/kg
same,LD50 at 14 days,[1]; LD50 95% confidence limit,2400 to 3700 mg/kg
same,Optical Density at 570 nm,"[2]; 100 μg/ml, 12 h",0.344 ± 0.004
same,Optical Density at 570 nm,"[2]; 100 μg/ml, 24 h",0.583 ± 0.004
same,Optical Density at 570 nm,"[2]; 100 μg/ml, 48 h",0.807 ± 0.007
same,Optical Density at 570 nm,"[2]; 500 μg/ml, 12 h",0.344 ± 0.005
same,Optical Density at 570 nm,"[2]; 500 μg/ml, 24 h",0.573 ± 0.004
same,Optical Density at 570 nm,"[2]; 500 μg/ml, 48 h",0.758 ± 0.010
same,Optical Density at 570 nm,"[2]; 1000 μg/ml, 12 h",0.343 ± 0.004
same,Optical Density at 570 nm,"[2]; 1000 μg/ml, 24 h",0.553 ± 0.004
same,Optical Density at 570 nm,"[2]; 1000 μg/ml, 48 h",0.704 ± 0.003
same,Optical Density at 570 nm,"[2]; 2500 μg/ml, 12 h",0.346 ± 0.005
same,Optical Density at 570 nm,"[2]; 2500 μg/ml, 24 h",0.502 ± 0.003
same,Optical Density at 570 nm,"[2]; 2500 μg/ml, 48 h",0.646 ± 0.006
same,anti-proliferative potency compared with PIRFENIDONE,[2]; human peritoneal mesothelial cells,more potent anti-proliferative agent than PIRFENIDONE
same,Histological Score for Interstitial Compartment,[3],7.11 ± 1.38
same,"Histological Score for Lung Tissue, Mean",[4],2.0000
same,Histological Score for Interstitial Compartment,[5],6.43 ± 1.28
"Cc1ccc(=O)n(-c2ccccc2)c1 [PFD, 5-methyl-1-phenyl-2(1H)-pyridone, reference compound]",LD50 reported in the literature,Kun Ming (KM) mice; Pharmaceutical Care and Research 5:4823(2005),1112 mg/kg
same,LD50 reported in the literature,"Kun Ming (KM) mice; U.S. Pat. No. 5,310,562",997.7 mg/kg
same,LD50 at 14 days,[1]; LD50,955 mg/kg
same,LD50 at 14 days,[1]; LD50 95% confidence limit,551 to 1660 mg/kg
same,Optical Density at 570 nm,"[2]; 100 μg/ml, 12 h",0.346 ± 0.006
same,Optical Density at 570 nm,"[2]; 100 μg/ml, 24 h",0.584 ± 0.005
same,Optical Density at 570 nm,"[2]; 100 μg/ml, 48 h",0.810 ± 0.006
same,Optical Density at 570 nm,"[2]; 500 μg/ml, 12 h",0.343 ± 0.004
same,Optical Density at 570 nm,"[2]; 500 μg/ml, 24 h",0.577 ± 0.003
same,Optical Density at 570 nm,"[2]; 500 μg/ml, 48 h",0.766 ± 0.004
same,Histological Score for Interstitial Compartment,[3],8.06 ± 2.41
same,"Histological Score for Lung Tissue, Mean",[4],2.0909

# Source: patent US20090005424A9, “Composition and Method for Treating Fibrotic Diseases” (priority 2005, published 2009)
